Molecules are shown by their SMILES.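 Tested at 5 concentrations; 48 h exposure; 96-well plates; endpoints linearly interpolated, else capped at highest concentration. TGI marks complete inhibition of growth.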

The test system of one assay is RXF 393 renal. The assay is described as follows: DTP human tumour cell line panel, 48 h.
Take `CCN(CC)CCn1c(=O)c2cccnc2n2c3c(=O)n(C)c(=O)n(C)c3nc12`: the TGI – broadly, the concentration giving total growth inhibition – was greater than 100 µM.
In turn, `CC(=N/N=C/c1ccccn1)/C(C)=N/N=C(C)/C(C)=N/N=C(C)/C(C)=N/N=C(C)/C(C)=N\N=C\c1ccccn1` returned a TGI greater than 100 µM.
In turn, `CC1=NN(c2cccc(Cl)c2)C2(C1=C/C=C/c1ccccc1)C(Cl)C(=O)N2c1nc2ccccc2s1` (stereo not given) displayed a TGI greater than 49 µM.
Still for that read-out and setting: the same measure for `C=CCSc1nnc2cc(CN3CCCC3)c(-c3ccc(Cl)cc3)nn12`: 31.5 µM; for `CN(C)c1ccc(C(=N/N=C2\C(=O)Nc3ccccc32)c2ccc(N(C)C)cc2)cc1`: 1.23 µM; for `CSC(=S)N(C)C`: greater than 100 µM.
`CCN(CC)CCN(C(=Nc1ccccc1)N1CCOCC1)c1ccccc1` displayed a TGI greater than 100 µM.
On the same count and under the same terms, the same measure for `CC1(C)CCCC2OC2CCC(C)(C)C1=O` (stereo not given): greater than 100 µM; for `COP(=O)(/C=C/c1cc(C(=O)OCc2ccccc2)n(S(=O)(=O)c2ccccc2)c1)OC`: greater than 100 µM.
For the molecule `NC1=NCC(CN2CCOCC2)O1` (stereo not given), the TGI was greater than 100 µM.
Regarding `COc1cc(/C=C/C(=O)CC(=O)/C=C/c2ccc(OC(=O)CCCCC3CCSS3)c(OC)c2)ccc1OC(=O)CCCCC1CCSS1` (stereo not given), the TGI is greater than 100 µM.
`CCCCC(C(=O)NCCNC(=O)CCC(=O)N(C)O)C(=O)NCCNC(=O)CCC(=O)N(C)O`: the TGI was greater than 100 µM.

The test system of another assay is SF-539 CNS. Description: DTP human tumour cell line panel, 48 h.
Regarding `CCN(CC)CCn1c(=O)c2cccnc2n2c3c(=O)n(C)c(=O)n(C)c3nc12`, the TGI was greater than 100 µM.
Still for that read-out and setting: the same measure for `CC(=N/N=C/c1ccccn1)/C(C)=N/N=C(C)/C(C)=N/N=C(C)/C(C)=N/N=C(C)/C(C)=N\N=C\c1ccccn1`: greater than 100 µM; for `CC1=NN(c2cccc(Cl)c2)C2(C1=C/C=C/c1ccccc1)C(Cl)C(=O)N2c1nc2ccccc2s1` (stereo not given): greater than 86.1 µM.
With `C=CCSc1nnc2cc(CN3CCCC3)c(-c3ccc(Cl)cc3)nn12`, the TGI is 36.2 µM.
Same read-out and setting: the same measure for `CN(C)c1ccc(C(=N/N=C2\C(=O)Nc3ccccc32)c2ccc(N(C)C)cc2)cc1`: 3.72 µM; for `CSC(=S)N(C)C`: greater than 100 µM; for `CCN(CC)CCN(C(=Nc1ccccc1)N1CCOCC1)c1ccccc1`: greater than 100 µM.
In turn, `CC1(C)CCCC2OC2CCC(C)(C)C1=O` (stereo not given) showed a TGI greater than 100 µM.
As for `COP(=O)(/C=C/c1cc(C(=O)OCc2ccccc2)n(S(=O)(=O)c2ccccc2)c1)OC`, the TGI was greater than 100 µM.
Molecule `NC1=NCC(CN2CCOCC2)O1` (stereo not given) had a total growth inhibition concentration (TGI) greater than 100 µM.
As to `COc1cc(/C=C/C(=O)CC(=O)/C=C/c2ccc(OC(=O)CCCCC3CCSS3)c(OC)c2)ccc1OC(=O)CCCCC1CCSS1` (stereo not given), the TGI is greater than 100 µM.
Still for that read-out and setting: the same measure for `CCCCC(C(=O)NCCNC(=O)CCC(=O)N(C)O)C(=O)NCCNC(=O)CCC(=O)N(C)O`: greater than 100 µM.

The test system of the next assay is SK-MEL-28 melanoma. Description: DTP human tumour cell line panel, 48 h.
Turning to `CCN(CC)CCn1c(=O)c2cccnc2n2c3c(=O)n(C)c(=O)n(C)c3nc12`, the TGI is greater than 100 µM.
Molecule `CC(=N/N=C/c1ccccn1)/C(C)=N/N=C(C)/C(C)=N/N=C(C)/C(C)=N/N=C(C)/C(C)=N\N=C\c1ccccn1` gave a TGI greater than 100 µM.
Regarding `CC1=NN(c2cccc(Cl)c2)C2(C1=C/C=C/c1ccccc1)C(Cl)C(=O)N2c1nc2ccccc2s1` (stereo not given), the TGI was greater than 100 µM.
On the same count and under the same terms, the same measure for `C=CCSc1nnc2cc(CN3CCCC3)c(-c3ccc(Cl)cc3)nn12`: 47.8 µM; for `CN(C)c1ccc(C(=N/N=C2\C(=O)Nc3ccccc32)c2ccc(N(C)C)cc2)cc1`: greater than 57.2 µM; for `CSC(=S)N(C)C`: greater than 100 µM.
On the same count and under the same terms, the same measure for `CCN(CC)CCN(C(=Nc1ccccc1)N1CCOCC1)c1ccccc1`: greater than 100 µM; for `CC1(C)CCCC2OC2CCC(C)(C)C1=O` (stereo not given): greater than 100 µM; for `COP(=O)(/C=C/c1cc(C(=O)OCc2ccccc2)n(S(=O)(=O)c2ccccc2)c1)OC`: greater than 100 µM.
The same measure, in the same setting: the same measure for `NC1=NCC(CN2CCOCC2)O1` (stereo not given): greater than 100 µM.
`COc1cc(/C=C/C(=O)CC(=O)/C=C/c2ccc(OC(=O)CCCCC3CCSS3)c(OC)c2)ccc1OC(=O)CCCCC1CCSS1` (stereo not given) registered a TGI greater than 100 µM.
For the molecule `CCCCC(C(=O)NCCNC(=O)CCC(=O)N(C)O)C(=O)NCCNC(=O)CCC(=O)N(C)O`, the TGI was greater than 100 µM.

Another assay relates to SNB-19 CNS. Description: DTP human tumour cell line panel, 48 h.
Regarding `CCN(CC)CCn1c(=O)c2cccnc2n2c3c(=O)n(C)c(=O)n(C)c3nc12`, the TGI was greater than 100 µM.
The molecule `CC(=N/N=C/c1ccccn1)/C(C)=N/N=C(C)/C(C)=N/N=C(C)/C(C)=N/N=C(C)/C(C)=N\N=C\c1ccccn1` showed a TGI greater than 100 µM.
Still for that read-out and setting: the same measure for `CC1=NN(c2cccc(Cl)c2)C2(C1=C/C=C/c1ccccc1)C(Cl)C(=O)N2c1nc2ccccc2s1` (stereo not given): greater than 100 µM; for `C=CCSc1nnc2cc(CN3CCCC3)c(-c3ccc(Cl)cc3)nn12`: 71.7 µM; for `CN(C)c1ccc(C(=N/N=C2\C(=O)Nc3ccccc32)c2ccc(N(C)C)cc2)cc1`: greater than 100 µM.
Same read-out and setting: the same measure for `CSC(=S)N(C)C`: greater than 100 µM; for `CCN(CC)CCN(C(=Nc1ccccc1)N1CCOCC1)c1ccccc1`: greater than 100 µM.
The molecule `CC1(C)CCCC2OC2CCC(C)(C)C1=O` (stereo not given) registered a TGI greater than 100 µM.
Consider `COP(=O)(/C=C/c1cc(C(=O)OCc2ccccc2)n(S(=O)(=O)c2ccccc2)c1)OC`, for which the TGI was greater than 100 µM.
Still for that read-out and setting: the same measure for `NC1=NCC(CN2CCOCC2)O1` (stereo not given): greater than 100 µM; for `COc1cc(/C=C/C(=O)CC(=O)/C=C/c2ccc(OC(=O)CCCCC3CCSS3)c(OC)c2)ccc1OC(=O)CCCCC1CCSS1` (stereo not given): greater than 100 µM; for `CCCCC(C(=O)NCCNC(=O)CCC(=O)N(C)O)C(=O)NCCNC(=O)CCC(=O)N(C)O`: greater than 100 µM.

The test system of another assay is U251 CNS. Description: DTP human tumour cell line panel, 48 h.
In turn, `CCN(CC)CCn1c(=O)c2cccnc2n2c3c(=O)n(C)c(=O)n(C)c3nc12` came in with a TGI greater than 100 µM.
Regarding `CC(=N/N=C/c1ccccn1)/C(C)=N/N=C(C)/C(C)=N/N=C(C)/C(C)=N/N=C(C)/C(C)=N\N=C\c1ccccn1`, the TGI was greater than 100 µM.
`CC1=NN(c2cccc(Cl)c2)C2(C1=C/C=C/c1ccccc1)C(Cl)C(=O)N2c1nc2ccccc2s1` (stereo not given) registered a concentration for total growth inhibition (TGI) of 37.2 µM.
Turning to `C=CCSc1nnc2cc(CN3CCCC3)c(-c3ccc(Cl)cc3)nn12`, the TGI amounted to 31.2 µM.
Same read-out and setting: the same measure for `CN(C)c1ccc(C(=N/N=C2\C(=O)Nc3ccccc32)c2ccc(N(C)C)cc2)cc1`: 15.5 µM.
In the case of `CSC(=S)N(C)C`, the TGI was greater than 100 µM.
`CCN(CC)CCN(C(=Nc1ccccc1)N1CCOCC1)c1ccccc1` showed a TGI greater than 100 µM.
In turn, `CC1(C)CCCC2OC2CCC(C)(C)C1=O` (stereo not given) registered a TGI greater than 100 µM.
Regarding `COP(=O)(/C=C/c1cc(C(=O)OCc2ccccc2)n(S(=O)(=O)c2ccccc2)c1)OC`, the TGI was greater than 100 µM.
The molecule `NC1=NCC(CN2CCOCC2)O1` (stereo not given) registered a TGI greater than 100 µM.
In the case of `COc1cc(/C=C/C(=O)CC(=O)/C=C/c2ccc(OC(=O)CCCCC3CCSS3)c(OC)c2)ccc1OC(=O)CCCCC1CCSS1` (stereo not given), the TGI was greater than 100 µM.
`CCCCC(C(=O)NCCNC(=O)CCC(=O)N(C)O)C(=O)NCCNC(=O)CCC(=O)N(C)O`: the concentration for total growth inhibition (TGI) is greater than 100 µM.

Source of the values: PubChem BioAssay (NCI).
